This passage reports IC50 results from patent publication US11384048B2, “Aromatic vinyl or aromatic ethyl derivative, preparation method therefor, intermediate, pharmaceutical composition, and application” (GUANGZHOU MAXINOVEL PHARMACEUTICALS CO., LTD., priority 2017, dated 2022).

For the assay, the target named is PD-1/PD-L1 (Homo sapiens (Human), UniProt Q9NZQ7). Kind of assay: Homogenouse Time-Resolved Fluorescence (HTRF) binding assay PD-1/PD-L1. The note with it: CisBio kit #64CUS000C-1. The protocol: Homogenouse Time-Resolved Fluorescence (HTRF) binding assay was used to determine the binding activity of the compound of the present disclosure to PD-1/PD-L1.
Chain of PD-1/PD-L1 (Q9NZQ7 19-238): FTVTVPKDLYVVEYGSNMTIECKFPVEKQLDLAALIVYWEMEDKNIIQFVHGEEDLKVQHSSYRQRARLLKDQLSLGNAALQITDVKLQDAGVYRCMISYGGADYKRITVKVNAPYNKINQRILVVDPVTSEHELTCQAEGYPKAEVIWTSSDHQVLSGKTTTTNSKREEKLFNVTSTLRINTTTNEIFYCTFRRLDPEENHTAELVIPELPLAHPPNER
The purchased kit (CisBio, #64CUS000C-1) contained the reagents required for experiments such as PD-1, PD-L1, anti-tag1-Eu, Anti-tag2-XL665, Dilute Buffer and Detection Buffer.
1. The compound was formulated to 10 concentrations with a three-fold concentration gradient with 100% DMSO.
2. The solution of the compound in DMSO was added to Dilute Buffer, and mixed evenly and then transferred to a 96-well plate.
3. PD-L1 was diluted with Dilute Buffer and added to the 96-well plate above.
4. PD-1 was diluted with Dilute Buffer, then added to the 96-well plate above and incubated at room temperature for 30 minutes.
5. One portion of anti-tag1-Eu and one portion of anti-tag2-XL665 were added to Detection Buffer, mixed evenly and transferred to the 96-well plate above.
6. The mixed solution in the 96-well plate were incubated at room temperature for 1 to 24 hours.
7. HTRF values were read by Envision.
On to `Cc1nc2ccc(-c3cccc(/C=C/c4cc(CN[C@@](C)(CO)C(=O)O)ccc4C(F)(F)F)c3C)cc2o1` [Compound 43, (S,E)-3-hydroxy-2-methyl-2-(3-(2-methyl-3-(2-methylbenzo[d]oxazol-6-yl)-styryl)-4-(trifluoromethyl)benzylamino)-3-hydroxy-2-methylpropanoic acid], for which the IC50 amounted to 540 nM.
The result for `Cc1c(/C=C/c2cc(CN[C@@](C)(CO)C(=O)O)ccc2C(F)(F)F)cccc1-c1cn2ccnc2cn1` [Compound 37] reads 1300 nM; that for `Cc1c(/C=C/c2cc(CN[C@@](C)(CO)C(=O)O)ccc2C(F)(F)F)cccc1-c1ccc2nccn2c1` [Compound 36], above 10000 nM.

By IC50 is commonly meant the concentration needed to halve the response being measured. High values mean a need for much substance, low ones inhibition by little substance.
